Measured values taken from US9617517B2, “Small chemical compound which promotes induction of differentiation of stem cells into insulin-producing cells and method for inducing differentiation of stem cells into insulin-producing cells using said small chemical compound” (NATIONAL UNIVERSITY CORPORATION KUMAMOTO UNIVERSITY, priority 2011, dated 2017).

Experiments:
[1] = tested on: mouse ES cells (Pdx1/GFP); experiment: Differentiation of mouse ES cells into insulin positive cells on nano fiber plate, immunostaining and quantitative image analysis; assay type: cell-based
From the text: Two ES cell lines, one expressing green fluorescent protein (GFP) under the control of insulin 1 promoter, designed ING (Higuchi Y., Shiraki N., Yamane K, Qin Z., Mochitate K., Araki K., Senokuchi K., Yamagata K., Hara M., Kume K., and Kume S., Synthesized basement membranes direct the differentiation of mouse embryonic stem cells into pancreatic lineages. J. Cell Science, 123, 2733-2742, 2010), and the other one expressing GFP under the control of Pdx1 promoter, designated SK7 (Shiraki N, Yoshida T, Araki K, et al. Guided differentiation of embryonic stem cells into Pdx1-expressing regional-specific definitive endoderm. Stem Cells. 2008; 26:874-885), were used. Both cell lines were maintained on mouse embryonic fibroblast (MEF) feeders in Glasgow minimum essential medium (Invitrogen) containing 1000 units/ml leukemia inhibitory factor (LIF; Chemicon), 15% Knocked-out Serum Replacement (KSR; Gibco), 1% fetal bovine serum (FBS; Hyclone), 100 μM nonessential amino acids (NEAA; Invitrogen), 2 mM L-glutamine (L-Gln; Invitrogen), 1 mM sodium pyruvate (Invitrogen), 50 units/ml penicillin and 50 μg/ml streptomycin (PS; Invitrogen) and 100 μM β-mercaptoethanol (β-ME; Sigma), as ES maintenance medium.
For the differentiation studies, ES cells were plated at 5,000 cells per well in Corning 96 well plate with Ultra-Web Synthetic Polyamine Surface (#3873XX1, Corning Coster, Cambridge, Miss.), and cultured. The cells were cultured in Dulbecco's Modified Eagle Medium (DMEM: Invitrogen, Glasgow, UK) containing 4500 mg/L glucose, supplemented with NEAA, L-Gln, PS, β-ME, 10 μg/ml insulin (Sigma-Aldrich), 5.5 μg/ml transferrin (Sigma-Aldrich), 6.7 pg/ml selenium (Sigma-Aldrich), and 0.25% Albmax (Invitrogen), 10 ng/mL recombinant human activin-A (R&D Systems, Minneapolis, Minn.), 5 ng/mL; recombinant human bFGF for 7 days (d1-d7) (I of FIG. 1). And then, the medium was changed to RPMI 1640 medium (Invitrogen) containing 2000 mg/L glucose (Sigma, St Louis, Mo.), 1 μM Retinoic acid (Sigma-Aldrich), 50 ng/ml Human Recombinant Fibroblast Growth Factor-10 (Peprotech, Rocky Hill, N.J.), B27 SUPPLEMENT (Invitrogen) and 0.25 μM 3-Keto-N-(aminoethyl-aminocaproyl-dihydrocinnamoyl) cyclopamine Shh Signaling Antagonist II (Calbiochem, San Diego, Calif.) on d7 to d11 (II of FIG. 1). Finally, the medium was switched to DMEM containing 1000 mg/L glucose supplemented with NEAA, L-Gln, PS, β-ME, 10 μg/ml insulin (Sigma-Aldrich), 5.5 μg/ml transferrin (Sigma-Aldrich), 6.7 pg/ml selenium (Sigma-Aldrich), 0.25% Albmax (Invitrogen) and 10 mM nicotinamide (Sigma-Aldrich) on d11 to d17 (III of FIG. 1). Media were replaced every 2 days with fresh medium and growth factors until d17.
All tested small chemical compounds were solved in dimethyl sulfoxide (DMSO) at given concentration. Compounds were added on d11, d13 and d15 in a medium. Final concentration of DMSO was adjusted at 1.0% in all experiments for compounds.
After 17 days cell culture, cultured ES cells were fixed in 4% paraformaldehyde in PBS for 30 min at room temperature, and rinsed several times with PBS. Then, cells were incubated in the added diluted primary antibody in 20% Blocking One (Nacalai tesque, Tokyo, Japan) in PEST (0.1% Tween-20 in PBS) in a humidified chamber for overnight at 4° C. After washing the cells in PBST, cells were incubated with the secondary antibody in 20% Blocking One for 2 hr at room temperature in dark. After washing off the secondary antibody in PBST, cells were counterstained with […] (DAPI) (Roche Diagnostics). The following antibodies were used as First antibodies: Rabbit anti-GFP (MBL International Corp., Woburn, Mass.), Mouse anti-Insulin (Sigma). The following antibodies were used as Secondary antibodies: Alexa 568-conjugated, Alexa 488-conjugated antibodies (Invitrogen) Cells were counterstained with DAPI (Roche Diagnotics, Basel, Switzerland).

VMAT2KD ES cells [2] = experiment: c-peptide amount of differentiated VMAT2KD ES cells (ELISA); assay type: cell-based, mouse; details: dBu-cAMP 0.6 μM (FIG. 12A)
Description: (§1) In the Vmat2-knockdown and Drd2-knockdown assays, Expression Arrest non-silencing control shRNA (Open Biosystems, #RHS4080), Vmat2 hRNA (Open Biosystems, #RMM3981-97058457 and #RMM3981-97058458) or Drd2 hRNA (Open Biosystems, #RMM3981-9594258) lentiviral vectors were used. For virus preparation, HEK293-FT cells (Invitrogen) were seeded on a plate medium the day before transfection. After overnight culture, the cells were transfected with lentiviral vectors and ViraPower™ Lentiviral Packaging Mix (Invitrogen) using FuGENE6 Transfection Reagent (Roche) according to the manufacturer's protocol. Cells were incubated in the ES maintenance medium for 24 hours, and viral supernatants were collected. Then, SK7 cells were infected with the viral supernatants. After incubation for 24 hours, the virus-containing medium was replaced with fresh ES maintenance medium. Further 24 hours later, the infected cells were selected using […] puromycin. The surviving cells were cloned as a knockdown-cell lines.
Differentiated ES cells were pre-incubated for 4 hours in low glucose (5.5 mM) Dulbecco's modified minimal essential medium with 1% fetal bovine serum. […] Insulin secretion into the culture medium and insulin content of the cell lysate were measured using the mouse c-peptide ELISA kit (Shibayagi. Co. Ltd., Japan). […]

differentiated ES cells = experiment: Secreted insulin and cellular insulin content by mouse c-peptide ELISA; assay type: cell-based
VMAT2KD ES cells [3] = experiment: Differentiation into insulin-expressing cells in vesicular monoamine transporter knock-down cell line; assay type: cell-based, mouse; details: VMAT2KD cells with dBu-cAMP 0.63 μM; control = normal cells without cAMP analog (FIG. 11A)
Description: as §1
Drd2 is known as a G protein-coupled receptor activating Gαi/o protein and having an inhibiting activity against adenyl cyclase. To identify the intracellular signal transduction phenomenon by Drd2, the effect of cAMP was examined. […] This enhancement was stronger than that obtained when dBu-cAMP was added to VMAT2KD ES cells (FIG. 10). […]

Q: How did the “increase of number of insulin positive cells” value ([1]; 0.6 μM dBu-cAMP (FIG. 11B)) turn out when CCCC(=O)Nc1ncnc2c1ncn2[C@@H]1O[C@@H]2COP(=O)(O)O[C@H]2[C@H]1OC(=O)CCC [Dibutyryl- cAMP, dibutyrate-cAMP] was run?
A: about 7 fold

Q: And the “increase of number of insulin-expressing cells” value ([1]; NS cells, 0.63 μM dBu-cAMP d11-d17 (FIG. 11A))?
A: 2.9 fold

Q: And the “effect on differentiation into insulin-expressing cells” value ([1]; compound added d11-d17, insulin staining d17 (FIG. 4, 5, 7, 8, 10))?
A: enhanced the differentiation into insulin-expressing cells

Q: What about the “Relative value of Ins positive cells” value ([1]; number of cells with no compound = 1, concentration of each compound (μM), added d11, d13, d15, analysed d17) of the same molecule?
A: 4.9

Q: And the “c-peptide amount of differentiated cells” value (VMAT2KD ES cells [2])?
A: large increase in the c-peptide amount

Q: What about the “sugar-responsive C-peptide secretion” value (differentiated ES cells; dBu-cAMP 0.6 μM, no TBZ, addition days 11-17, 11-15 or 13-17, day 17 (FIG. 17)) of the same molecule?
A: increased in all conditions

Q: And the C-peptide secretion (differentiated ES cells; glucose concentration 27.5 mM, dBu-cAMP 0.6 μM day 11 to 17 (FIG. 18E))?
A: C-peptide secretion was observed

Q: And the “increase of number of insulin-expressing cells” value (VMAT2KD ES cells [3])?
A: 31.4 fold
